Measured values published in US6713276B2, “Modulation of Aβ levels by β-secretase BACE2” (Scios, Inc., priority 2000, dated 2004).

How the values were obtained:
[1] = test system: APP751sw processing in HEK293T cells; experiment: co-transfection with APP751sw in HEK293T cells, ELISA of conditioned medium; assay type: cell-based, human; details: co-transfected with APP751sw
Description: (§1) Expression vectors containing BACE and BACE2 cDNAs were transfected into HEK293T cells in the presence of APP751sw or CT100 (Shoji et al., Science 258: 126-129 [1992]; Lichtenthaler et al., Proc. Natl. Acad. Sci. USA 96: 3053-3058 [1999]). Transfections were performed in 24 well plates using Lipofectamine Plus (Gibco/BRL, Bethesda, Md.) and DNA concentrations were kept constant by including non-specific DNA. Expression plasmids were tested for BACE and BACE2 expression by Western blotting. Cell culture supernatants were collected 48 hours and 72 hours post-transfection, and assayed for α-NTF, β-NTF and Aβ formation. β-NTF measurement was performed as described below. α-NTF was captured like β-NTF but was detected with biotinylated 2H3 (Johnson-Wood et al., Proc. Nati. Acad. Sci. USA 94: 1550-1555 [1997]). Aβ levels were determined by an ELISA using monoclonal antibodies 266 for capture and biotinylated 3D6 for detection (see Johnson-Wood et al., [1997] ibid for antibody epitope description). Aβ42, in contrast, was captured using 21F 12 and detected with biotinylated 3D6. Cell extracts prepared 72 hour post-transfection were separated by SDS-PAGE (Novex) and probed with CT695 (Zymed) for APP and CTFs as well as with an Aβ specific monoclonal antibody WO2 (kindly provided by K. Beyreuther; Ida et al., J. Biol. Chem. 271: 22908-22914 [1996]). […]
Given the ability of BACE2 to cleave APP at the β-secretase site in vitro, we investigated the role of BACE2 in HEK293T cells relative to BACE. […] Cell supernatants were collected 48 hours or 72 hours post-transfection and analyzed for α-NTF, β-NTF, total Aβ and Aβ42 as described in Genenral Methodology. […]
In an independent experiment, we addressed whether BACE2 competed with the ability of BACE to cleave APP at the β-secretase site. HEK293T cells were co-transfected with constant amounts of APP751sw and BACE, and increasing levels of BACE2. β-NTF and Aβ levels were then measured in culture supernatant (FIG. 3). […]

APP751sw = experiment: cell-free β-secretase assay, β-NTF ELISA, APP751sw substrate; assay type: biochemical, human; details: membrane extracts of transfected HEK293 cells, pH 4.5, 37° C.
Description: The β-secretase assay consists of two different parts, an incubation or reaction phase to generate β-NTF and an ELISA part to capture and measure the β-NTF generated by β-secretase. The β-secretase ELISA was performed as follows. Each well of a 96 well plate containing a flat bottom (high protein binding, Corning, N.Y.) was coated with 100 μl of the monoclonal capture antibody 8E5 (at ˜8-10 μg/ml) (Johnson-Wood et al. Proc. Natl. Acad. Sci. USA 94: 1550-1555 [1997]). The plate was then covered with parafilm and incubated overnight at 4° C. or alternatively for 2 hours at 37° C. […]
One hundred μl of a 1:5000 dilution of a goat anti rabbit IgG-HRP in Antibody-Conjugate Buffer was then added to each well, and the plate incubated at room temperature for one hour. […] After sufficient blue color had developed, the reactions were stopped by adding 100 μl of 5N H2SO4 to each well, and the amount of βNTF was determined by reading the plate at 450 nm in a Softmax spectrophotometer.
Equal amounts of membrane extracts from either mock, BACE or BACE2 transfected HEK293 cells were incubated with partially purified full length APP751 sw or APP751wt for the indicated times. The formation of β-NTF was then determined using the respective β-NTF specific ELISA as described in General Methodology.

[2] = test system: APP751sw processing in HEK293T cells; experiment: pulse-chase / pulse-labeling and immunoprecipitation of APP CTFs, Aβ and p3 in HEK293T cells; assay type: cell-based, human; details: HEK293T, APP751sw, 15 min pulse, chase up to 90 minutes
Description: Forty eight hours post-transfection, HEK293T cells were labeled for 15 minutes with 200 μCi Promix L [^35S] in vitro cell labeling mix (Amersham) and chased for up to 90 minutes according to standard procedures. APP CTFs were immunoprecipitated with antibodies 369 (Cai et al., Science 259: 514-516 [1993]). For immunoprecipitations of Aβ and p3 from conditioned medium, HEK293T cells were labeled for 5 hours with 300 μCi Promix L [^35S] in vitro cell labeling mix (Amersham) 48 hours post-transfection. Aβ40 and Aβ42 as well as the corresponding p3 species were immunoprecipitated with monoclonal antibodies 1702.1 and 108.1, respectively (Higaki et al., J. Med. Chem. 42: 3889-3898 [1999]).
To analyze the metabolism of APP as a consequence of BACE or BACE2 overexpression we performed a parallel pulse-chase experiment (FIG. 2e). HEK293T cells transfected as above were pulse-labeled and chased for up to 90 minutes and APP and CTFs were immunoprecipitated. […] An alternative β-secretase related cleavage product (β′-CTF) was also formed consistent with previous reports (Vassar et al., Science [1999] ibid; Higaki et al., Neuron 14: 651-659 [1995]). Consistent with its β-secretase activity, BACE2 overexpression led to a significant initial increase in β-CTF levels compared to mock-transfected cells. […] To determine whether BACE affected γ-secretase activity, we determined whether p3 could be formed. […]

[3] = test system: CT100 (C-terminal 100 amino acids of APP) processing in HEK293T cells; experiment: co-transfection with CT100 in HEK293T cells, ELISA, Western blot, pulse-chase; assay type: cell-based, human; details: HEK293T, co-transfected with CT100
Description: as §1, with “3D6.” for “3D6. Cell extracts prepared 72 hour post-transfection were separated by SDS-PAGE (Novex) and probed with CT695 (Zymed) for APP and CTFs as well as with an Aβ specific monoclonal antibody WO2 (kindly provided by K. Beyreuther; Ida et al., J. Biol. Chem. 271: 22908-22914 [1996]).”
This effect prompted investigation into whether β-secretase cleavage was required for Aβ suppression. The effects of BACE2 on the metabolism of the C-terminal 100 amino acids of APP (CT100), a construct that mimics prior β-secretase cleavage (Shoji et al., Science 258: 126-129 [1992]), was analyzed. […]

[4] = test system: APP751sw processing in SK-N-MC cells; experiment: co-transfection with APP751sw in SK-N-MC neuroblastoma cells, ELISA of conditioned medium; assay type: cell-based, human; details: co-transfected with APP751sw
Description: as §1, with “3D6.” for “3D6. Cell extracts prepared 72 hour post-transfection were separated by SDS-PAGE (Novex) and probed with CT695 (Zymed) for APP and CTFs as well as with an Aβ specific monoclonal antibody WO2 (kindly provided by K. Beyreuther; Ida et al., J. Biol. Chem. 271: 22908-22914 [1996]).”
We further assessed the modulatory effect of BACE2 on Aβ formation using a human neuroblastoma cell line, SK-N-MC.

In the case of “BACE: β-site APP-cleaving enzyme, membrane-bound aspartyl protease, cloned from human brain cDNAs and overexpressed”, the “total Aβ in conditioned medium” value [1] is reported as “Aβ production was not significantly stimulated”, the “α-NTF levels in conditioned medium” value [1] is reported as “α-NTF levels were proportionally reduced” and the “total OD of α-NTF plus β-NTF” value ([1]; APP751sw alone ~2.59) is reported as about 2.3 OD. For the same substance, the “β-NTF formation (β-secretase cleavage in vitro)” value (APP751sw) was “time-dependent increase in β-NTF formation”, the “APP CTF turnover (β-CTF, β′-CTF, α-CTF)” value [2] was “accumulation of β-CTF” and the “total Aβ and Aβ42 levels in conditioned medium” value [3] was “did not affect the levels of Aβ”. For the same substance, the “Aβ in conditioned medium” value [4] was “very pronounced increase in both β-NTF and Aβ” and the “β-NTF in conditioned medium” value [4] was “very pronounced increase in both β-NTF and Aβ”.
